Assay [1] concerns the target human Maxi K channel (BK channel), KCNMA1 (KCa1.1) and beta1 (KCNMB1) subunits (Homo sapiens, UniProt Q12791).
Procedure: In Vitro Assay: Agonistic Activity at the Human Maxi K Channel (BK Channel)
A CHO K1 cell line was stably transfected with the KCNMA1 (KCa1.1, U11058) and beta1 (KCNMB1) subunits of the human Maxi K channel (Ponte et al, Molecular Pharmacology 2012, 81(4), 567-577).
Cells were seeded in microtiter plates (black 384-well MTP, clear bottom) in a concentration of 10,000 cells/well in 25 μl medium and cultured for 20 to 24 hours at 37° C. and 5% CO2. The cell medium was removed, and the cells washed with Tyrode's solution. 25 μl of FMP-dye Blue-Tyrode's was added to each well and incubated at room temperature for 30 min.
(§1) For the membrane potential measurements, the prepared cell plate and substance plate were placed in the FLIPR Tetra (Molecular Devices). The baseline measurement of the fluorescence was stared for 20 sec (Exc. 510-545 nm, Emm. 565-625 nm). The cells were depolarized by addition of 25 μl of the diluted test compounds (final assay concentration of the KCl-Tyrode: 70 mM KCl, 2 mM CaCl2, 1 mM MgCl2, 0.8 mM NaH2PO4, 5 mM Glucose, 28 mM Hepes, pH 7.4, including the voltage sensitive dye). The complete measurement takes 150 s.
(§2) EC50 values were determined in triplicate utilizing compound dilution series. The data were determined at least in two independent tests. The data were proceeded by using the ActivityBase XE Runner software (IDBS) for curve fitting and calculation of the half-maximal effective concentration.
Assay [2] addresses Caenorhabditis elegans slo-1a (Caenorhabditis elegans, UniProt Q95V25).
Procedure: In Vitro Assay: Agonistic Activity at C. elegans Slo-1a
A CHO K1 cell line stably transfected with the Caenorhabditis elegans slo-1a (accession no Y51A2D.19a) was established. Cells were seeded in microtiter plates (black 384-well MTP, clear bottom) in a concentration of 10,000 cells/well in 25 μl medium and cultured for 20 to 24 hours at 37° C. and 5% CO2. The cell medium was removed, and the cells washed with Tyrode's solution. 25 μl of FMP-dye Blue-Tyrode's was added to each well and incubated at room temperature for 30 min.
as §1, §2
Assay [3] relates to Oesophagostomum dentatum (nodular worm of swine), larval stage 3. The experiment in a line: In vitro assay: Oesophagostomum dentatum L3 larvae, minimum effective concentration. The conditions noted are these: in Sus scrofa, read-out: MEC (minimum effective concentration) against Oesophagostomum dentatum L3, L3 larvae, 20 per well, microscopic examination, concentration at which at least one larva shows mortality, change in motility or development.
Source text: (§3) In Vitro Assay: Ascaridia galli and Oesophagostomum dentatum
(§4) Ascaridia galli (intestinal roundworm of chicken), larval stage 3 (“L3”); and Oesophagostomum dentatum (nodular worm of swine), larval stages 3 and 4 (respectively “L3” and “L4”) where suspended in a nutrient medium and distributed to 96 well plates with 20 larvae per well. The wells were spiked with DMSO solutions of the compounds with declining concentration.

In a further assay the test system is D. immitis microfilaria. The experiment in a line: In vitro assay: Dirofilaria immitis L1 (microfilaria) motility. It is filed as cell-based. Conditions: 72 h, read-out: EC50 value, Dirofilaria immitis L1, approximately 500 microfilaria, 3 days incubation, reduction in motility vs DMSO, duplicates.
The next assay concerns A. viteae microfilaria. The experiment in a line: In vitro assay: Acanthocheilonema viteae L1 (microfilaria) motility. The conditions noted are these: 72 h, read-out: EC50 value, Acanthocheilonema viteae L1, approximately 500 microfilaria, 3 days incubation, reduction in motility vs DMSO, duplicates.
For assay [4], the system named is Oesophagostomum dentatum (nodular worm of swine), larval stage 4. The assay is described as follows: In vitro assay: Oesophagostomum dentatum L4 larvae, minimum effective concentration. The conditions noted are these: in Sus scrofa, read-out: MEC (minimum effective concentration) against Oesophagostomum dentatum L4, L4 larvae, 20 per well, microscopic examination, concentration at which at least one larva shows mortality, change in motility or development.
Source text: as §3, §4

pEC50: −log10 of the molar value. Some results are limits rather than exact numbers.

human Maxi K channel (BK channel), KCNMA1 (KCa1.1) and beta1 (KCNMB1) subunits, sequence (Q12791 1-1178 isoform Q12791-5): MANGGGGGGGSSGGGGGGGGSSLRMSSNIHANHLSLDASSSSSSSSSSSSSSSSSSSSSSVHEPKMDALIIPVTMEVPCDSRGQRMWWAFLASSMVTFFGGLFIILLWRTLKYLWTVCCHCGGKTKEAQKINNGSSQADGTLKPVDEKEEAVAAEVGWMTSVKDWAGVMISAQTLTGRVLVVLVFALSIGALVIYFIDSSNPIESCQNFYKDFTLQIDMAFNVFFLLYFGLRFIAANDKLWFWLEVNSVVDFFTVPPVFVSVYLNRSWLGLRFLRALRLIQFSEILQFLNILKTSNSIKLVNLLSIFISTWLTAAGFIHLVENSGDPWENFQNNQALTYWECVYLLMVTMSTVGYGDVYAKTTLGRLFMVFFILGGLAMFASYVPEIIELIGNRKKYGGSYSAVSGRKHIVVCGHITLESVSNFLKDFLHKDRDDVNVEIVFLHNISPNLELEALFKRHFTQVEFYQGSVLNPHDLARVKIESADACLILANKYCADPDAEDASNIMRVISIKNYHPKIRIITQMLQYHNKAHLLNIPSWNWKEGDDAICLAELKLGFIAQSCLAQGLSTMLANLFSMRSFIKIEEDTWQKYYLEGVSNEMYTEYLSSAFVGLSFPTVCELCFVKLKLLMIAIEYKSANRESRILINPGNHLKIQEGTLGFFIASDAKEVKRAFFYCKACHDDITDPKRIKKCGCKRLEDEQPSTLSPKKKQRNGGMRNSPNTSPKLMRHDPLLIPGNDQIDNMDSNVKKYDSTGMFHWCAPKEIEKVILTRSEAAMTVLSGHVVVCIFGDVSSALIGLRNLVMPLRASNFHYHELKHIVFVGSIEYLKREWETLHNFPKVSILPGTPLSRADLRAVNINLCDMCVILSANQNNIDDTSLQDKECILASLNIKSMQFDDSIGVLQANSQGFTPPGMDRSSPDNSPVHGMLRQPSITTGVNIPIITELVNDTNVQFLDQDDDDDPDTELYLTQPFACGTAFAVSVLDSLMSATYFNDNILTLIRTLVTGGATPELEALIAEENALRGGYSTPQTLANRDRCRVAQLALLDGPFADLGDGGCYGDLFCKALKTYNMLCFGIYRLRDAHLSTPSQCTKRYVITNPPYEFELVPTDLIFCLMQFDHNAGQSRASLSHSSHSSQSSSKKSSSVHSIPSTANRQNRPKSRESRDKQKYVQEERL
human Maxi K channel (BK channel), KCNMA1 (KCa1.1) and beta1 (KCNMB1) subunits, sequence (Q16558 whole entry partner): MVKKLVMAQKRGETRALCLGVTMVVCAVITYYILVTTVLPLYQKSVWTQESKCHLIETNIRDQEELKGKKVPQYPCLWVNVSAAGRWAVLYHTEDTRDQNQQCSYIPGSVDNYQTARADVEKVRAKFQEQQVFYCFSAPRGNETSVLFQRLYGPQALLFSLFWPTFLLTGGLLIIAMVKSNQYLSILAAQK
Caenorhabditis elegans slo-1a, sequence (Q95V25 whole entry): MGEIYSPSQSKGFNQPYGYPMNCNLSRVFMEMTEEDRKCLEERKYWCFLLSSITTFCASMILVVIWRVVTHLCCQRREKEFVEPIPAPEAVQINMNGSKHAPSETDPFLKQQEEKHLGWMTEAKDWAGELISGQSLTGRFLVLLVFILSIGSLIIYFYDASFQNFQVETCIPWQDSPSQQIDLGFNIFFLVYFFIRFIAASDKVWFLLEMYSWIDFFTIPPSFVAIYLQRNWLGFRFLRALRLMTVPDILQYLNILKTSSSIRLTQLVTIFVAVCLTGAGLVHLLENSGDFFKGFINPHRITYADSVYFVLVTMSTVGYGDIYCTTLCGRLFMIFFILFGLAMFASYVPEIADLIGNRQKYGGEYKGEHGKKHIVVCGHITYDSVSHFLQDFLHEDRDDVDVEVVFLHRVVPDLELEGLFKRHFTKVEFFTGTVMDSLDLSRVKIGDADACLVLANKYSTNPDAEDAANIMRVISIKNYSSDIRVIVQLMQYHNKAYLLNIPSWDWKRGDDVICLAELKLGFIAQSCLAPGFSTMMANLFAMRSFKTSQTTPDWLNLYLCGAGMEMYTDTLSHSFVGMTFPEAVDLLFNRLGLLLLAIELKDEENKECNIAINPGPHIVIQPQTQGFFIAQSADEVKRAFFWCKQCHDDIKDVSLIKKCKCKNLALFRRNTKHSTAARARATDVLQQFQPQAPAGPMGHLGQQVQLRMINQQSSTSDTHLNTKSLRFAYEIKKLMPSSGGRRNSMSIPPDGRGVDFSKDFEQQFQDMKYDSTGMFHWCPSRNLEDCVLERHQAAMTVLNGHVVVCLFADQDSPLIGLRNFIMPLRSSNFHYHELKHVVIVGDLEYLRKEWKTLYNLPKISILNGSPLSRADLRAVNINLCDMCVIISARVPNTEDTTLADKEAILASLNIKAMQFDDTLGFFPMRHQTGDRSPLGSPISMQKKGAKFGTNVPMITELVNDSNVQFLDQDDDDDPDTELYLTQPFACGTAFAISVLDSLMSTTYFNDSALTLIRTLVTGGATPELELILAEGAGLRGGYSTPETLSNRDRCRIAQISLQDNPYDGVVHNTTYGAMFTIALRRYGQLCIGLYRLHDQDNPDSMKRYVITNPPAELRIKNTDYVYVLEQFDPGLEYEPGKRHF
Procedure for A. viteae microfilaria: In Vitro Assay: Acanthocheilonema viteae L1
Approximately 500 A. viteae microfilaria were added to a microtiter plate containing a nutrient medium and the test compound in DMSO at varying concentrations. After incubation for 3 days, activity was evaluated as reduction in motility as compared to DMSO as negative control. Compounds were tested in duplicates. Based on the concentration response curves EC50 values were calculated.

`CN(C)c1c(C(=O)NC2CCc3ccccc32)cnc2c1ccn2-c1cc(Cl)cc(Cl)c1` (stereo not shown) [Compound 1, 1-(3,5-dichlorophenyl)-N-(2,3-dihydro-1H-inden-1-yl)-4-(dimethylamino)-1H-pyrrolo[2,3-b]pyridine-5-carboxamide]: the figures for the pEC50 in assay [1] and in assay [2] were under 4.52 and over 6.00, respectively.
For `CN(C)c1c(C(=O)NC2CCc3ccccc32)cnc2c1ccn2-c1cccc(Cl)c1Cl` (stereo not shown) [Compound 2], in that order: under 4.52 and over 6.00.
Take `O=C(NC1CCc2ccccc21)c1cnc2c(ccn2-c2cc(Cl)cc(Cl)c2)c1N1CCOCC1` (stereo not shown) [Compound 3]: the pEC50 (usually −log10 of the EC50, conventionally taken in molar units) in assay [1] was under 4.52.
For `O=C(NC1CCc2ccccc21)c1cnc2c(ccn2-c2cccc(Cl)c2Cl)c1N1CCOCC1` (stereo not shown) [Compound 4], the results for the pEC50 in assay [1] and in assay [2] were under 4.52 and over 6.00, respectively.
For `CN(C)c1c(C(=O)NC2CCOc3ccccc32)cnc2c1ccn2-c1cc(Cl)cc(Cl)c1` (stereo not shown) [Compound 5], the pEC50 in assay [1] is under 4.52; in assay [2] it was over 6.00. Besides, the minimal effective concentration in assay [3] was at most 50 µM.
Regarding `CN(C)c1c(C(=O)NC2CCOc3ccccc32)cnc2c1ccn2-c1cccc(Cl)c1Cl` (stereo not shown) [Compound 6], the pEC50 in assay [1] was under 4.52; in assay [2] it was over 6.00.
Turning to `O=C(NC1CCOc2ccccc21)c1cnc2c(ccn2-c2cc(Cl)cc(Cl)c2)c1N1CCOCC1` (stereo not shown) [Compound 7], in assay [1], the pEC50 was under 4.52.
Still for that read-out and setting: the result for `CN(C)c1c(C(=O)NCc2ccccc2)cnc2c1ccn2-c1cc(Cl)cc(Cl)c1` [Compound 9] reads under 4.52.
Turning to `CN(C)c1c(C(=O)NCc2ccccc2)cnc2c1ccn2-c1cccc(Cl)c1Cl` [Compound 10], the figures for the pEC50 in assay [1] and in assay [2] were under 4.52 and over 6.00, respectively.
Consider `O=C(NCc1ccccc1)c1cnc2c(ccn2-c2cc(Cl)cc(Cl)c2)c1N1CCOCC1` [Compound 11], for which the pEC50 in assay [1] was under 4.52. Moreover, the minimal effective concentration in assay [3] is at most 50 µM.
`O=C(NCc1ccccc1)c1cnc2c(ccn2-c2cccc(Cl)c2Cl)c1N1CCOCC1` [Compound 12]: the pEC50 in assay [1] is under 4.52.
Take `CN(C)c1c(C(=O)N[C@H]2CCOc3ccccc32)cnc2c1ccn2-c1cccc(Cl)c1Cl` [Compound 13]: the pEC50 was under 4.52 in assay [1] and over 6.00 in assay [2].
As for `CN(C)c1c(C(=O)N[C@H]2CCCc3ccccc32)cnc2c1ccn2-c1cccc(Cl)c1Cl` [Compound 14, (S)-1-(2,3-dichlorophenyl)-4-(dimethylamino)-N-(1,2,3,4-tetrahydronaphthalen-1-yl)-1H-pyrrolo[2,3-b]pyridine-5-carboxamide], the pEC50 in assay [1] is 4.52 to 5.00; in assay [2], over 6.00.
In the case of `CN(C)c1c(C(=O)N[C@@H]2CCc3ccccc32)cnc2c1ccn2-c1cccc(Cl)c1Cl` [Compound 15], the negative logarithm of the EC50 (pEC50) in assay [1] was under 4.52; with D. immitis microfilaria, over 5.00.
Regarding `CN(C)c1c(C(=O)N[C@H]2CCc3ccccc32)cnc2c1ccn2-c1cccc(Cl)c1Cl` [Compound 16], the results for the pEC50 in assay [1] and in assay [2] were under 4.52 and over 6.00, respectively.
In the case of `O=C(N[C@H]1CCCc2ccccc21)c1cnc2c(ccn2-c2cccc(Cl)c2Cl)c1N1CCOCC1` [Compound 17], the pEC50 is 4.52 to 5.00 in assay [1] and over 6.00 in assay [2].
Turning to `CN(C)c1c(C(=O)N[C@@H]2CCOc3ccccc32)cnc2c1ccn2-c1cccc(Cl)c1Cl` [Compound 18], the pEC50 in assay [1] is under 4.52; with A. viteae microfilaria, over 5.00; in assay [2], over 5.00. The minimal effective concentration in assay [4] is at most 50 µM.
For the molecule `CN(C)c1c(C(=O)NC2CC(C)(C)Oc3ccccc32)cnc2c1ccn2-c1cccc(Cl)c1Cl` (stereo not shown) [Compound 19], the pEC50 in assay [1] was under 4.52; in assay [2], over 5.00.
For `CN(C)c1c(C(=O)Nc2cccc3ccccc23)cnc2c1ccn2-c1cccc(Cl)c1Cl` [Compound 20], the pEC50 in assay [1] was under 4.52; in the assay on A. viteae microfilaria, over 5.00. In assay [3], the minimal effective concentration is at most 50 µM.
On to `O=C(N[C@H]1CCOc2ccccc21)c1cnc2c(ccn2-c2cccc(Cl)c2Cl)c1N1CCOCC1` [Compound 21], for which the pEC50 in assay [1] was under 4.52; in assay [2], over 6.00.
In assay [1], `O=C(N[C@H]1CCc2ccccc21)c1cnc2c(ccn2-c2cccc(Cl)c2Cl)c1N1CCOCC1` [Compound 22] gave a pEC50 of under 4.52.
In assay [1], `O=C(Nc1cccc2ccccc12)c1cnc2c(ccn2-c2cccc(Cl)c2Cl)c1N1CCOCC1` [Compound 23] gave a pEC50 of under 4.52. Besides, the minimal effective concentration in assay [3] and in assay [4] was at most 50 µM in each case.
In the case of `CN(C)c1c(C(=O)N[C@H]2CCOc3ccccc32)cnc2c1ccn2-c1cccc(F)c1F` [Compound 25], the pEC50 in assay [1] was under 4.52; in assay [2] it was over 6.00.
As for `CN(C)c1c(C(=O)N[C@H]2CCOc3ccccc32)cnc2c1ccn2-c1cccc(C(F)(F)F)c1` [Compound 28], the results for the pEC50 in assay [1] and in assay [2] were under 4.52 and over 6.00, respectively.
Consider `Cc1cccc(-n2ccc3c(N(C)C)c(C(=O)N[C@H]4CCOc5ccccc54)cnc32)c1C` [Compound 29], for which the figures for the pEC50 in assay [1] and in assay [2] were under 4.52 and over 6.00, respectively.
For the molecule `CN(C)c1cccc(-n2ccc3c(N(C)C)c(C(=O)N[C@H]4CCOc5ccccc54)cnc32)c1` [Compound 30], the values for the pEC50 in assay [1] and in assay [2] were under 4.52 and over 6.00, respectively. For the same molecule, the minimal effective concentration in assay [3] was at most 50 µM.
Take `COc1cccc(-n2ccc3c(N(C)C)c(C(=O)N[C@H]4CCOc5ccccc54)cnc32)c1` [Compound 31]: the pEC50 in assay [1] was under 4.52; in assay [2], over 6.00.
With `CN(C)c1c(C(=O)N[C@H]2CCOc3ccccc32)cnc2c1ccn2-c1cc(Cl)cc(Cl)c1` [Compound 32], the pEC50 in assay [1] was under 4.52.
Molecule `O=C(N[C@H]1CCOc2ccccc21)c1cnc2c(ccn2-c2cc(Cl)cc(Cl)c2)c1N1CCOCC1` [Compound 33] had a pEC50 in assay [1] of under 4.52.
As for `CN(C)c1c(C(=O)N[C@H]2CCCc3ccccc32)cnc2c1ccn2-c1cc(Cl)cc(Cl)c1` [Compound 34], the pEC50 in assay [1] was under 4.52; in assay [2], over 5.00.
In the case of `O=C(N[C@H]1CCCc2ccccc21)c1cnc2c(ccn2-c2cc(Cl)cc(Cl)c2)c1N1CCOCC1` [Compound 35], the pEC50 in assay [1] was under 4.52.
In the case of `CN(C)c1c(C(=O)NC2CC(C)(C)Oc3ccccc32)cnc2c1ccn2-c1cc(Cl)cc(Cl)c1` (stereo not shown) [Compound 38], the pEC50 in assay [1] is 4.52 to 5.00; in the assay with A. viteae microfilaria, over 5.00; in assay [2] it was over 5.00. Moreover, the minimal effective concentration in assay [3] is at most 50 µM.
With `CC1(C)CC(NC(=O)c2cnc3c(ccn3-c3cc(Cl)cc(Cl)c3)c2N2CCOCC2)c2ccccc2O1` (stereo not shown) [Compound 39], the pEC50 was under 4.52 in assay [1] and over 5.00 with A. viteae microfilaria. The minimal effective concentration in assay [3] and in assay [4] was at most 50 µM throughout.
As for `CC1(C)CC(NC(=O)c2cnc3c(ccn3-c3cccc(Cl)c3Cl)c2N2CCOCC2)c2ccccc2O1` (stereo not shown) [Compound 40], the results for the pEC50 (in assay [1]; in the assay with A. viteae microfilaria; in assay [2]) were under 4.52, over 5.00 and over 5.00, respectively. Also, the minimal effective concentration in assay [3] was at most 50 µM.
For the molecule `CN(C)c1c(C(=O)Nc2cccc3ccccc23)cnc2c1ccn2-c1cc(Cl)cc(Cl)c1` [Compound 41], the pEC50 in assay [1] is under 4.52; in the assay on A. viteae microfilaria it was over 5.00.
Regarding `O=C(Nc1cccc2ccccc12)c1cnc2c(ccn2-c2cc(Cl)cc(Cl)c2)c1N1CCOCC1` [Compound 42], the negative-log EC50 (pEC50) in assay [1] was under 4.52.
For `CCOc1c(C(=O)N[C@H]2CCOc3ccccc32)cnc2c1ccn2-c1cc(Cl)cc(Cl)c1` [Compound 43], the pEC50 in assay [1] was under 4.52; in the assay on D. immitis microfilaria, over 5.00. Moreover, the minimal effective concentration in assay [4] is at most 50 µM.
Molecule `CCOc1c(C(=O)N[C@H]2CCc3ccccc32)cnc2c1ccn2-c1cc(Cl)cc(Cl)c1` [Compound 44] gave a pEC50 in assay [1] of under 4.52.
Molecule `CCOc1c(C(=O)N[C@H]2CCCc3ccccc32)cnc2c1ccn2-c1cc(Cl)cc(Cl)c1` [Compound 45] showed a pEC50 in assay [1] of under 4.52.
On the same count and under the same terms, the result for `CCOc1c(C(=O)Nc2cccc3ccccc23)cnc2c1ccn2-c1cc(Cl)cc(Cl)c1` [Compound 46] reads under 4.52; that for `COc1c(C(=O)N[C@H]2CCOc3ccccc32)cnc2c1ccn2-c1cc(Cl)cc(Cl)c1` [Compound 47], under 4.52.
Turning to `COc1c(C(=O)N[C@H]2CCCc3ccccc32)cnc2c1ccn2-c1cc(Cl)cc(Cl)c1` [Compound 48], the results for the pEC50 (in assay [1]; in the assay with A. viteae microfilaria) were under 4.52 and over 5.00, respectively. In addition, the minimal effective concentration in assay [3] is at most 50 µM.
Take `COc1c(C(=O)N[C@H]2CCc3ccccc32)cnc2c1ccn2-c1cc(Cl)cc(Cl)c1` [Compound 49]: the pEC50 in assay [1] was under 4.52.
Consider `COc1c(C(=O)Nc2cccc3ccccc23)cnc2c1ccn2-c1cc(Cl)cc(Cl)c1` [Compound 50], for which the pEC50 in assay [1] is under 4.52; with D. immitis microfilaria, over 5.00.
As for `O=C(N[C@H]1CCOc2ccccc21)c1cnc2c(ccn2-c2cc(Cl)cc(Cl)c2)c1O` [Compound 51], the pEC50 in assay [1] is under 4.52; in the assay with A. viteae microfilaria, over 5.00; in the assay with D. immitis microfilaria, over 5.00.

(Values after patent US12479841B2, “Anthelmintic compounds comprising azaindoles structure” (Intervet Inc., priority 2019, dated 2025).)
